Residues, ends and D or L forms follow the SMILES beside them.
target: Nitric oxide synthase 1 (Rattus norvegicus, UniProt P29476); test: Inhibition of rat recombinant nNOS expressed in Escherichia coli assessed as nitric oxide production by hemoglobin capture assay
Sequence (P29476 whole entry): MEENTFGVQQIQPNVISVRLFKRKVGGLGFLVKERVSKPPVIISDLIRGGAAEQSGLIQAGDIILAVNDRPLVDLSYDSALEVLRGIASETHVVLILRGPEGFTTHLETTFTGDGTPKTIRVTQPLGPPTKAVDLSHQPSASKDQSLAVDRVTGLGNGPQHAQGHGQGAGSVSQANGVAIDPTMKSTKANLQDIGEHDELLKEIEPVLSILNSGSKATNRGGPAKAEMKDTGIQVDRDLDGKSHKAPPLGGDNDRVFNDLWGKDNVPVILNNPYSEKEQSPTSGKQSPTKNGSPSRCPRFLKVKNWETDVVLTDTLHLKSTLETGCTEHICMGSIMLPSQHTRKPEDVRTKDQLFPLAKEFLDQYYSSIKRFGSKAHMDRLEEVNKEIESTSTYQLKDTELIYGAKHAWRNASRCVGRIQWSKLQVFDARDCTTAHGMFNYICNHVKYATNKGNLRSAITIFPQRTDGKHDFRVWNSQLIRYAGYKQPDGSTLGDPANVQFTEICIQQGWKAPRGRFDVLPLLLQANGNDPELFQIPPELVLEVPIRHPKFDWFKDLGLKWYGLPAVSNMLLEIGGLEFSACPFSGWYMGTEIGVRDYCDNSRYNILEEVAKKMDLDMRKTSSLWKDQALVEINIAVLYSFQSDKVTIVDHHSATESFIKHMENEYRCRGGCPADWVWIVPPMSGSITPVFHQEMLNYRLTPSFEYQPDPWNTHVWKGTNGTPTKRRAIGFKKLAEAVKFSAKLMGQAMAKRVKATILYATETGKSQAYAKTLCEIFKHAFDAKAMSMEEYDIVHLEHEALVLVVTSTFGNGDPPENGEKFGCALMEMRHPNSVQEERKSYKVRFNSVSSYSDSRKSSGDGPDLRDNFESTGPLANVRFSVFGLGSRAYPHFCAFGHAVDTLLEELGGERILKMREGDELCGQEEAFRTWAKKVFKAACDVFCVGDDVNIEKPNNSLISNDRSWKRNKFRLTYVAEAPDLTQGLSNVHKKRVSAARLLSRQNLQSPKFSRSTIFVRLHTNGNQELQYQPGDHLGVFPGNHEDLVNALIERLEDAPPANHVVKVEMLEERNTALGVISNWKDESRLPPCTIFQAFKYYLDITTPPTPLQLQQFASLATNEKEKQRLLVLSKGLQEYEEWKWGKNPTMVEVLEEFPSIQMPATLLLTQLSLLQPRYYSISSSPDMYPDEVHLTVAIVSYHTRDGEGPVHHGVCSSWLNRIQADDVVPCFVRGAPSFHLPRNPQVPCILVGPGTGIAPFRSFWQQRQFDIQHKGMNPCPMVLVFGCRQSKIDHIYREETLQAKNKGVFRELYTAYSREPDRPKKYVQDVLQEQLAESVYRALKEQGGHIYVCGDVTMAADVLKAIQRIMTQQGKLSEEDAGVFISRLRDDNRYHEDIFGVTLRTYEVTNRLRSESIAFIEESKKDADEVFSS

Point of comparison: `N=C(NCCC[C@H](N)C(=O)NC1CCNCC1)N[N+](=O)[O-]`, Ki 0.47 µM. Against it:
- CN[C@@H](CCCNC(=N)N[N+](=O)[O-])C(=O)N[C@H]1CN[C@H](C(N)=O)C1 — 2.3-fold higher, 1.09 µM
- CN[C@@H](CCCNC(N)=N[N+](=O)[O-])C(=O)N[C@@H]1CCNC1 — 2.3-fold higher, 1.08 µM
- CN[C@@H](CCCNC(N)=N[N+](=O)[O-])C(=O)N[C@@H]1CCCNC1 — 4.8-fold higher, 2.26 µM
- C[C@H](NC(=O)[C@H](CC(N)=O)NC(=O)[C@@H](N)CC(N)=O)C(=O)O (H-Asn-Asn-Ala-OH) — within 1.5-fold, 0.61 µM
- NC(=N[N+](=O)[O-])NCCC[C@H](N)C(=O)N[C@@H]1CCNC1 — 2.1-fold lower, 0.22 µM
- N=C(NCCC[C@H](N)C(=O)N[C@H]1CCCNC1)N[N+](=O)[O-] — 16-fold higher, 7.62 µM
- CN[C@@H](CCCNC(N)=N[N+](=O)[O-])C(=O)NC1CCNCC1 — 5.1-fold higher, 2.38 µM
- NC(=O)[C@@H]1C[C@@H](NC(=O)[C@@H](N)CCC/N=C(\N)N[N+](=O)[O-])CN1 — within 1.5-fold, 0.33 µM
- NC(=N[N+](=O)[O-])NCCC[C@H](N)C(=O)N[C@@H]1CCCNC1 — within 1.5-fold, 0.48 µM
- NC(=N[N+](=O)[O-])NCCC[C@H](N)C(=O)N[C@H]1CCNC1 — 3.7-fold higher, 1.76 µM

target: T1, Nitric oxide synthase, inducible (Mus musculus, UniProt P29477); test: Inhibition of mouse recombinant iNOS expressed in Escherichia coli assessed as nitric oxide production by hemoglobin capture assay
T1 sequence (P29477 whole entry): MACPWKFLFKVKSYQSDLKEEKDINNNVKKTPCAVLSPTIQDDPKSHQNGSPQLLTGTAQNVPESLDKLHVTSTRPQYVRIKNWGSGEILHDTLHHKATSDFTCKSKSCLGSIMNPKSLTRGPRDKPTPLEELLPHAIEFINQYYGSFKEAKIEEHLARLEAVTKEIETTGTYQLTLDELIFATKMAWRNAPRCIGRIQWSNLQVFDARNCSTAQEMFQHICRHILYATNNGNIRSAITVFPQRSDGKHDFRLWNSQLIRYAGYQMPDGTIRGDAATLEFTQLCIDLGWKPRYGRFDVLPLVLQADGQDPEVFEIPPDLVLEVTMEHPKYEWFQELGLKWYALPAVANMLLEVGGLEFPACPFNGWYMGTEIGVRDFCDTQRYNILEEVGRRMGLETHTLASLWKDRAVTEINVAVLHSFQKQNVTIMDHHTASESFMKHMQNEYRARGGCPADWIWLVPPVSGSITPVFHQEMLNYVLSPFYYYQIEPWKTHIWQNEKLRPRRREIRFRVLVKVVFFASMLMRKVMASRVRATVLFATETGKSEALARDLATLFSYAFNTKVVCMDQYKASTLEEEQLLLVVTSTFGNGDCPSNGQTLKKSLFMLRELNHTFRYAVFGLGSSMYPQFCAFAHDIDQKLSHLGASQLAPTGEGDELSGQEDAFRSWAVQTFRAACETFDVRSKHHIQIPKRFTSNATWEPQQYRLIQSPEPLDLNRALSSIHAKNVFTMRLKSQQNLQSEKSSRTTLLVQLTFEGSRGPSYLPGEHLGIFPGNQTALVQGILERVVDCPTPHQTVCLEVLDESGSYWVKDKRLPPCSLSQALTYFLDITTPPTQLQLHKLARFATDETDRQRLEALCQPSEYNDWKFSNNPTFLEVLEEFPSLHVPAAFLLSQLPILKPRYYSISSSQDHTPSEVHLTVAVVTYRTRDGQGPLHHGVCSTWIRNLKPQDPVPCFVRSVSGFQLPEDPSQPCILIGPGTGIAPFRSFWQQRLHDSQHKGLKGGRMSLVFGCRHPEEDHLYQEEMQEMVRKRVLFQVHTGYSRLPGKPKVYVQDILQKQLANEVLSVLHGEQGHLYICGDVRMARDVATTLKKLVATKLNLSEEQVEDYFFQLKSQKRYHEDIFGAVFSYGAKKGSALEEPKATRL

Point of comparison: `N=C(NCCC[C@H](N)C(=O)NC1CCNCC1)N[N+](=O)[O-]`, Ki 202 µM. Against it:
- CN[C@@H](CCCNC(=N)N[N+](=O)[O-])C(=O)N[C@H]1CN[C@H](C(N)=O)C1 — 3.1-fold lower, 65 µM
- CN[C@@H](CCCNC(N)=N[N+](=O)[O-])C(=O)N[C@@H]1CCNC1 — 1.6-fold lower, 124 µM
- CN[C@@H](CCCNC(N)=N[N+](=O)[O-])C(=O)N[C@@H]1CCCNC1 — within 1.5-fold, 242 µM
- C[C@H](NC(=O)[C@H](CC(N)=O)NC(=O)[C@@H](N)CC(N)=O)C(=O)O (H-Asn-Asn-Ala-OH) — 47-fold lower, 4.28 µM
- NC(=N[N+](=O)[O-])NCCC[C@H](N)C(=O)N[C@@H]1CCNC1 — 3.7-fold lower, 55 µM
- N=C(NCCC[C@H](N)C(=O)N[C@H]1CCCNC1)N[N+](=O)[O-] — 2.6-fold higher, 535 µM
- CN[C@@H](CCCNC(N)=N[N+](=O)[O-])C(=O)NC1CCNCC1 — 2.5-fold higher, 515 µM
- NC(=O)[C@@H]1C[C@@H](NC(=O)[C@@H](N)CCC/N=C(\N)N[N+](=O)[O-])CN1 — 12-fold lower, 17 µM
- NC(=N[N+](=O)[O-])NCCC[C@H](N)C(=O)N[C@@H]1CCCNC1 — 2.2-fold lower, 90 µM
- NC(=N[N+](=O)[O-])NCCC[C@H](N)C(=O)N[C@H]1CCNC1 — 3.5-fold lower, 57 µM

tested on: not listed separately; test: Selectivity of rat recombinant nNOS over bovine recombinant eNOS

Point of comparison: `N=C(NCCC[C@H](N)C(=O)NC1CCNCC1)N[N+](=O)[O-]`, Ratio Ki 557. Against it:
- CN[C@@H](CCCNC(=N)N[N+](=O)[O-])C(=O)N[C@H]1CN[C@H](C(N)=O)C1 — lower, 266
- N=C(NCCC[C@H](N)C(=O)N[C@H]1CCNC1)N[N+](=O)[O-] — lower, 44
- C[C@H](NC(=O)[C@H](CC(N)=O)NC(=O)[C@@H](N)CC(N)=O)C(=O)O (H-Asn-Asn-Ala-OH) — lower, 1.2
- N=C(NCCC[C@H](N)C(=O)N[C@@H]1CCNC1)N[N+](=O)[O-] — lower, 309
- N=C(NCCC[C@H](N)C(=O)N[C@@H]1CCCNC1)N[N+](=O)[O-] — lower, 469
- CN[C@@H](CCCNC(=N)N[N+](=O)[O-])C(=O)N[C@@H]1CCCNC1 — lower, 77
- N=C(NCCC[C@H](N)C(=O)N[C@H]1CCCNC1)N[N+](=O)[O-] — lower, 29
- CN[C@@H](CCCNC(=N)N[N+](=O)[O-])C(=O)N[C@@H]1CCNC1 — lower, 148
- CN[C@@H](CCCNC(=N)N[N+](=O)[O-])C(=O)NC1CCNCC1 — lower, 48

target: T2, Nitric oxide synthase 3 (Bos taurus, UniProt P29473); test: Inhibition of bovine recombinant eNOS expressed in Escherichia coli assessed as nitric oxide production by hemoglobin capture assay
T2 sequence (P29473 whole entry): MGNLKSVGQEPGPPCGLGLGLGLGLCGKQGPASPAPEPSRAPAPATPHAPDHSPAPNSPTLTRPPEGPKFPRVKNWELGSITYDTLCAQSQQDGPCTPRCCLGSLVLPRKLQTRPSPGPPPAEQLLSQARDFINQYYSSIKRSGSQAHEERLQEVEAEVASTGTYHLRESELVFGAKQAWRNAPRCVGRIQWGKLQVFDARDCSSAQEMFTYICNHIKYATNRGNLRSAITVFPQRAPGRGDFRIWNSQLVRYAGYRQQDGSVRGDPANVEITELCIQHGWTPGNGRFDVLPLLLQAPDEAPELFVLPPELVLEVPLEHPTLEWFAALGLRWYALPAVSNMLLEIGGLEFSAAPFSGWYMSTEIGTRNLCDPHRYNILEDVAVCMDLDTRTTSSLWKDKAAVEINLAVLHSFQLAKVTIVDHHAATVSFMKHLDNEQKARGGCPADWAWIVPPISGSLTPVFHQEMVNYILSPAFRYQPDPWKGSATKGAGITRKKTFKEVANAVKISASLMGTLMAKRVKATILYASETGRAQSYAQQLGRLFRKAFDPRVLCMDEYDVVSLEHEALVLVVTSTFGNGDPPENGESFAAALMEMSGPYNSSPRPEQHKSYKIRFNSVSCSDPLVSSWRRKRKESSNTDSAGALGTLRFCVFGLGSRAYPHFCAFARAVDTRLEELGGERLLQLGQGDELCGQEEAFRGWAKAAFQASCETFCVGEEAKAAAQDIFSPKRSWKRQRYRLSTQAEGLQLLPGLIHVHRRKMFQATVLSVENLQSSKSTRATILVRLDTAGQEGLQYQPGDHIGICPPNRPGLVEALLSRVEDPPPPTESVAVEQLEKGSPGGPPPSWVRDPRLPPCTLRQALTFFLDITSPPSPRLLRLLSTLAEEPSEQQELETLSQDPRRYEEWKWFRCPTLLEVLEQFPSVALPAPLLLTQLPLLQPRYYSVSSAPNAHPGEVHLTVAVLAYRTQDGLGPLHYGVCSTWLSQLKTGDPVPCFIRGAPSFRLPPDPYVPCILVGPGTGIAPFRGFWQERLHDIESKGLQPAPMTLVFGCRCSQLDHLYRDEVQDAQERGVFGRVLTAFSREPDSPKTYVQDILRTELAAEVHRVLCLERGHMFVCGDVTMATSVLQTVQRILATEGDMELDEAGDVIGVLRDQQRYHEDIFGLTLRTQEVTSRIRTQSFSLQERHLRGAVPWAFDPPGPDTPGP

Point of comparison: `CN[C@@H](CCCNC(N)=N[N+](=O)[O-])C(=O)N[C@@H]1CCCNC1`, Ki 174 µM. Against it:
- CN[C@@H](CCCNC(=N)N[N+](=O)[O-])C(=O)N[C@H]1CN[C@H](C(N)=O)C1 — 1.7-fold higher, 290 µM
- CN[C@@H](CCCNC(N)=N[N+](=O)[O-])C(=O)N[C@@H]1CCNC1 — within 1.5-fold, 160 µM
- C[C@H](NC(=O)[C@H](CC(N)=O)NC(=O)[C@@H](N)CC(N)=O)C(=O)O (H-Asn-Asn-Ala-OH) — 240-fold lower, 0.72 µM
- NC(=N[N+](=O)[O-])NCCC[C@H](N)C(=O)N[C@@H]1CCNC1 — 2.6-fold lower, 68 µM
- N=C(NCCC[C@H](N)C(=O)NC1CCNCC1)N[N+](=O)[O-] — 1.5-fold higher, 262 µM
- N=C(NCCC[C@H](N)C(=O)N[C@H]1CCCNC1)N[N+](=O)[O-] — within 1.5-fold, 221 µM
- CN[C@@H](CCCNC(N)=N[N+](=O)[O-])C(=O)NC1CCNCC1 — 1.5-fold lower, 114 µM
- NC(=N[N+](=O)[O-])NCCC[C@H](N)C(=O)N[C@@H]1CCCNC1 — within 1.5-fold, 225 µM
- NC(=N[N+](=O)[O-])NCCC[C@H](N)C(=O)N[C@H]1CCNC1 — 2.3-fold lower, 77 µM

tested on: not listed separately; test: Selectivity of rat recombinant nNOS over mouse recombinant iNOS

Point of comparison: `N=C(NCCC[C@H](N)C(=O)N[C@@H]1CCCNC1)N[N+](=O)[O-]`, Ratio Ki 188. Against it:
- CN[C@@H](CCCNC(=N)N[N+](=O)[O-])C(=O)N[C@H]1CN[C@H](C(N)=O)C1 — lower, 60
- N=C(NCCC[C@H](N)C(=O)N[C@H]1CCNC1)N[N+](=O)[O-] — lower, 32
- C[C@H](NC(=O)[C@H](CC(N)=O)NC(=O)[C@@H](N)CC(N)=O)C(=O)O (H-Asn-Asn-Ala-OH) — lower, 7
- N=C(NCCC[C@H](N)C(=O)N[C@@H]1CCNC1)N[N+](=O)[O-] — higher, 250
- CN[C@@H](CCCNC(=N)N[N+](=O)[O-])C(=O)N[C@@H]1CCCNC1 — lower, 107
- N=C(NCCC[C@H](N)C(=O)NC1CCNCC1)N[N+](=O)[O-] — higher, 430
- N=C(NCCC[C@H](N)C(=O)N[C@H]1CCCNC1)N[N+](=O)[O-] — lower, 70
- CN[C@@H](CCCNC(=N)N[N+](=O)[O-])C(=O)N[C@@H]1CCNC1 — lower, 115
- CN[C@@H](CCCNC(=N)N[N+](=O)[O-])C(=O)NC1CCNCC1 — higher, 216

— ChEMBL document CHEMBL1142908, “Selective L-nitroargininylaminopyrrolidine and L-nitroargininylaminopiperidine neuronal nitric oxide synthase inhibitors” (Bioorg Med Chem, 2007)
